Read-outs that look alike come from different tables or passages of the source.
Assays:
[1] = target: T1, human cloned 5-HT2A receptor, expressed in L929 cells (Homo sapiens, UniProt P28223); test: In vitro radioligand binding affinity for 5-HT2A receptor ([125I]R91150)
T1 construct: expressed in transfected cells; host or cells: L929 cells
Procedure: (§1) The interaction of the compounds of Formula (I) with 5-HT2A and 5-HT2C receptors was assessed in in vitro radioligand binding experiments. In general, a low concentration of a radioligand with a high binding affinity for the receptor is incubated with a sample of a tissue preparation enriched in a particular receptor (1 to 5 mg tissue) in a buffered medium (0.2 to 5 ml). During the incubation, the radioligands bind to the receptor. When equilibrium of binding is reached, the receptor bound radioactivity is separated from the non-bound radioactivity, and the receptor bound activity is counted. The interaction of the test compounds with the receptors is assessed in competition binding experiments. Various concentrations of the test compound are added to the incubation mixture containing the tissue preparation and the radioligand. Binding of the radioligand will be inhibited by the test compound in proportion to its binding affinity and its concentration. The affinities of the compounds for the 5-HT2 receptors were measured by means of radioligand binding studies conducted with: (a) human cloned 5-HT2A receptor, expressed in L929 cells using [^125I]R91150 as radioligand and (b) human cloned 5-HT2C receptor, expressed in CHO cells using [^3H]mesulergine as radioligand.
(§2) The results are given in Table 3 below in terms of pIC50 values for the respective compounds.

[2] = target: T2, human cloned 5-HT2C receptor, expressed in CHO cells (Homo sapiens, UniProt P28335); test: In vitro radioligand binding affinity for 5-HT2C receptor ([3H]mesulergine)
T2 construct: expressed in transfected cells; host or cells: CHO cells
T2 sequence (P28335 33-458): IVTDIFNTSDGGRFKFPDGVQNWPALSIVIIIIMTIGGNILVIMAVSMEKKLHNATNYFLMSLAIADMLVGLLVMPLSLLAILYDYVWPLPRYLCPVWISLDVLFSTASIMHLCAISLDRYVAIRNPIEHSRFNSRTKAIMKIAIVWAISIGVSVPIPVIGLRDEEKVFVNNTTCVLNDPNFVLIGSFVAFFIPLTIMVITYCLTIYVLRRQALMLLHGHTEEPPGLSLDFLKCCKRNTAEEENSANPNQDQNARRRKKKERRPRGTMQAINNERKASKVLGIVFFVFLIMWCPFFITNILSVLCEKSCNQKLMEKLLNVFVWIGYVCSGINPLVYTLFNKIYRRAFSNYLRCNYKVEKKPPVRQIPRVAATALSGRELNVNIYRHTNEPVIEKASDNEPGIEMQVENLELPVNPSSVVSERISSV
Procedure: as §1, §2

[3] = target: T3, human Dopamine D2L receptor (Homo sapiens, UniProt P14416); test: In vitro binding affinity for human D2L receptor ([3H]Spiperone)
T3 construct: expressed in transfected cells; host or cells: CHO cells (membranes)
Procedure: Frozen membranes of human Dopamine D2L receptor-transfected CHO cells were thawed, briefly homogenized using an Ultra-Turrax T25 homogenizer and diluted in Tris-HCl assay buffer containing NaCl, CaCl2, MgCl2, KCl ([…] respectively, adjusted to pH 7.7 with HCl) to an appropriate protein concentration optimized for specific and non-specific binding. Radioligand [^3H]Spiperone (NEN, specific activity ˜70 Ci/mmol) was diluted in assay buffer at a concentration of 2 nmol/L. Prepared radioligand (50 μl), along with 50 μl of either the 10% DMSO control, Butaclamol (10^−6 mol/l final concentration), or compound of interest, was then incubated (30 min, 37° C.) with 400 μl of the prepared membrane solution. Membrane-bound activity was filtered through a Packard Filtermate harvester onto GF/B Unifilter plates and washed with ice-cold Tris-HCl buffer (50 mM; pH 7.7; 6×0.5 ml). Filters were allowed to dry before adding scintillation fluid and counting in a Topcount scintillation counter. Percentage specific bound and competition binding curves were calculated using S-Plus software (Insightful).
as §2
The values in the Table are pIC50 values and were determined in accordance with the procedure given above for determining D2 affinity.

[4] = human cloned receptor in L929 cells, [125I]R91150, read-out: 5-HT2A pIC50 (converted)
[5] = human cloned receptor in CHO cells, [3H]mesulergine, read-out: 5-HT2C pIC50 (converted)
[6] = human D2L-transfected CHO cell membranes, [3H]Spiperone, read-out: D2L pIC50 (converted)
[7] = Table 4, comparative data with prior art analogue

T3 sequence (P14416 whole entry): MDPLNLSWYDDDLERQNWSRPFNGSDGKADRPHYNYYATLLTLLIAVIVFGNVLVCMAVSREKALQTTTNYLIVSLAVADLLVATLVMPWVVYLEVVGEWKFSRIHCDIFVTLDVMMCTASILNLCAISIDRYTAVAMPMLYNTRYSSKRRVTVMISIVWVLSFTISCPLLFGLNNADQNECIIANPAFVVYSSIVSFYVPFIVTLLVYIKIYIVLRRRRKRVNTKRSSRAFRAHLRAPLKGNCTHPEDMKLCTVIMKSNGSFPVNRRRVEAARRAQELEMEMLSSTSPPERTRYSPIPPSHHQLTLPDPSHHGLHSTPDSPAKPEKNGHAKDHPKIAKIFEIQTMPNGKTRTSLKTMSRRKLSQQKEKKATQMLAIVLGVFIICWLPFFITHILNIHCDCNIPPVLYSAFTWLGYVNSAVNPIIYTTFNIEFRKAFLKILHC
T1 sequence (P28223 whole entry): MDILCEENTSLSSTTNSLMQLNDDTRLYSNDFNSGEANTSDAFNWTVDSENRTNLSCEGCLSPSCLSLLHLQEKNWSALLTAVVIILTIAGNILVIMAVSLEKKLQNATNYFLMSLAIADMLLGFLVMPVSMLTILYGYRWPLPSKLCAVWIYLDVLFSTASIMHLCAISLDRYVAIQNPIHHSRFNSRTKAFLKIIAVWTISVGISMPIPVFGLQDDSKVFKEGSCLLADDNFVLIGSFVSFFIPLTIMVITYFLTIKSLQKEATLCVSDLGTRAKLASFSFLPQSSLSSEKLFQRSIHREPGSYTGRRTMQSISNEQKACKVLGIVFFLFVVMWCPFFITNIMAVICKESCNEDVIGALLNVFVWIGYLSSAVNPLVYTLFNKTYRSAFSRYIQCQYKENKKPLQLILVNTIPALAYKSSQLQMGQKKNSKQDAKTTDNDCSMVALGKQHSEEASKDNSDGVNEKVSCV

Row | IC50 [1, 4] | IC50 [2, 5] | IC50 [3, 6] | h-D2L pIC50 [3, 7] | IC50 ([3]; Table 4, comparative data with prior art analogue, read-out: h-D2L pIC50 (converted)) | Structure (SMILES) | IC50 [1] | IC50 [2] | IC50 [3]
1 | 8.51 nM | 4.37 nM | 40.7 nM | – | – | CC1CCCN1C[C@H]1C[C@@H]2c3ccccc3Cc3ccc(F)cc3[C@H]2O1 (mixture of isomers) [Compound 16] | – | – | –
2 | 4.68 nM | 5.25 nM | 24 nM | – | – | Fc1ccc2c(c1)C1OC(CN3CCCC3)CC1c1ccccc1C2 (stereo not drawn) [Compound 4] | – | – | –
3 | 14.5 nM | 19.1 nM | 7.41 nM | – | – | CC(=O)OCCN1CCN(C[C@H]2C[C@@H]3c4ccccc4Cc4ccc(F)cc4[C@H]3O2)CC1 [Compound 5] | – | – | –
4 | 9.77 nM | 3.09 nM | 16.2 nM | – | – | Fc1ccc2c(c1)[C@H]1O[C@@H](CN3CCCCCC3)C[C@@H]1c1ccccc1C2 [Compound 10] | – | – | –
5 | 3.89 nM | 1 nM | 1.35 nM | – | – | CC1CCN(C[C@H]2C[C@@H]3c4ccccc4Cc4ccc(F)cc4[C@H]3O2)CC1 [Compound 12] | – | – | –
6 | 1.91 nM | 1 nM | 5.89 nM | – | – | Fc1ccc2c(c1)C1OC(CN3CCCCC3)CC1c1ccccc1C2 (stereo not drawn) [Compound 17] | – | – | –
7 | 4.27 nM | 9.55 nM | 33.1 nM | – | – | CCOC(=O)N1CCN(C[C@H]2C[C@@H]3c4ccccc4Cc4ccc(F)cc4[C@H]3O2)CC1 [Compound 20] | – | – | –
8 | 3.8 nM | 39.8 nM | 34.7 nM | – | – | CC(C)C(=O)N1CCN(C[C@H]2C[C@@H]3c4ccccc4Cc4ccc(F)cc4[C@H]3O2)CC1 [Compound 22] | – | – | –
9 | 9.55 nM | 20.4 nM | 4.07 nM | – | – | OC(CN1CCN(C[C@H]2C[C@@H]3c4ccccc4Cc4ccc(F)cc4[C@H]3O2)CC1)c1ccccc1 (stereo partly drawn) [Compound 27] | – | – | –
10 | 4.79 nM | 10.7 nM | 4.57 nM | 8.34 | – | OC(Cc1ccccc1)CN1CCN(CC2CC3c4ccccc4Cc4ccc(F)cc4C3O2)CC1 (stereo not drawn) [Compound 28] | – | – | –
11 | 10 nM | 23.4 nM | 6.03 nM | 8.22 | – | CCCCC(O)CN1CCN(CC2CC3c4ccccc4Cc4ccc(F)cc4C3O2)CC1 (stereo not drawn) [Compound 29] | – | – | –
12 | 4.68 nM | 13.8 nM | 14.1 nM | – | – | COC(=O)N1CCN(C[C@H]2C[C@@H]3c4ccccc4Cc4ccc(F)cc4[C@H]3O2)CC1 [Compound 31] | – | – | –
13 | 5.13 nM | 32.4 nM | 22.9 nM | – | – | CC(C)OC(=O)N1CCN(C[C@H]2C[C@@H]3c4ccccc4Cc4ccc(F)cc4[C@H]3O2)CC1 [Compound 32] | – | – | –
14 | 11.7 nM | 38 nM | 17 nM | – | – | CCCCOC(=O)N1CCN(C[C@H]2C[C@@H]3c4ccccc4Cc4ccc(F)cc4[C@H]3O2)CC1 [Compound 33] | – | – | –
15 | 0.851 nM | 5.01 nM | 2.51 nM | – | – | CCOCCN1CCN(C[C@H]2C[C@@H]3c4ccccc4Cc4ccc(F)cc4[C@H]3O2)CC1 [Compound 34] | – | – | –
16 | 1.51 nM | 7.41 nM | 3.09 nM | – | – | COCCN1CCN(C[C@H]2C[C@@H]3c4ccccc4Cc4ccc(F)cc4[C@H]3O2)CC1 [Compound 35] | – | – | –
17 | 0.955 nM | 5.5 nM | 3.72 nM | – | – | CC(C)(C)OCCN1CCN(C[C@H]2C[C@@H]3c4ccccc4Cc4ccc(F)cc4[C@H]3O2)CC1 [Compound 36] | – | – | –
18 | 0.692 nM | 6.92 nM | 2 nM | – | – | OCCN1CCN(C[C@H]2C[C@@H]3c4ccccc4Sc4ccc(F)cc4[C@H]3O2)CC1 [Compound 39] | – | – | –
19 | 26.9 nM | 52.5 nM | 12.3 nM | – | – | CC(C)CN1CCN(C[C@H]2C[C@@H]3c4ccccc4Cc4ccc(F)cc4[C@H]3O2)CC1 [Compound 40] | – | – | –
20 | 97.7 nM | 295 nM | 95.5 nM | – | – | Fc1ccc2c(c1)[C@H]1O[C@@H](CN3CCN(CC(c4ccccc4)c4ccccc4)CC3)C[C@@H]1c1ccccc1C2 [Compound 41] | – | – | –
21 | – | – | – | – | – | Fc1ccc2c(c1)[C@H]1O[C@@H](CN3CCN(Cc4ccc(Cl)cc4)CC3)C[C@@H]1c1ccccc1C2 [Compound 42] | 49 nM | 77.6 nM | 28.2 nM
22 | – | – | – | – | – | Cc1ccccc1CN1CCN(C[C@H]2C[C@@H]3c4ccccc4Cc4ccc(F)cc4[C@H]3O2)CC1 [Compound 43] | 40.7 nM | 105 nM | 44.7 nM
23 | – | – | – | – | – | Fc1ccc2c(c1)[C@H]1O[C@@H](CN3CCN(Cc4ccccc4)CC3)C[C@@H]1c1ccccc1C2 [Compound 45] | 18.6 nM | 45.7 nM | 7.94 nM
24 | 5.13 nM | 8.51 nM | 1.12 nM | – | – | OC(CCN1CCN(C[C@H]2C[C@@H]3c4ccccc4Cc4ccc(F)cc4[C@H]3O2)CC1)c1ccc(F)cc1 (stereo partly drawn) [Compound 46] | – | – | –
25 | – | – | – | – | – | Fc1ccc(CN2CCN(C[C@H]3C[C@@H]4c5ccccc5Cc5ccc(F)cc5[C@H]4O3)CC2)cc1 [Compound 47] | 30.9 nM | 129 nM | 9.12 nM
26 | – | – | – | – | – | Fc1ccc2c(c1)[C@H]1O[C@@H](CN3CCN(Cc4ccc(C(F)(F)F)cc4)CC3)C[C@@H]1c1ccccc1C2 [Compound 48] | 234 nM | 302 nM | 85.1 nM
27 | – | – | – | – | 110 nM | OCCN1CCN(CC2CC3c4ccccc4Cc4ccc(F)cc4C3O2)CC1 (stereo not drawn) [Prior art compound 21from WO 99/19317, reference compound] | – | – | –
